B1: bacterially expressed PLCγ1: rat brain PLCγ1 with C-terminal Glu-Glu-Phe epitope tag, expressed in E. coli BL21 (DE3) from plasmid pT5T-PLC4 (protein, UniProt P10686 2-1290, looked up)
1-phosphatidylinositol …: AGVGTPCANGCGPSAPSEAEVLHLCRSLEVGTVMTLFYSKKSQRPERKTFQVKLETRQITWSRGADKIEGSIDIREIKEIRPGKTSRDFDRYQEDPAFRPDQSHCFVILYGMEFRLKTLSLQATSEDEVNMWIKGLTWLMEDTLQAATPLQIERWLRKQFYSVDRNREDRISAKDLKNMLSQVNYRVPNMRFLRERLTDFEQRSGDITYGQFAQLYRSLMYSAQKTMDLPFLETNTLRTGERPELCQVSLSEFQQFLLEYQGELWAVDRLQVQEFMLSFLRDPLREIEEPYFFLDELVTFLFSKENSVWNSQLDAVCPETMNNPLSHYWISSSHNTYLTGDQFSSESSLEAYARCLRMGCRCIELDCWDGPDGMPVIYHGHTLTTKIKFSDVLHTIKEHAFVASEYPVILSIEDHCSIAQQRNMAQHFRKVLGDTLLTKPVDIAADGLPSPNQLKRKILIKHKKLAEGSAYEEVPTSVMYSENDISNSIKNGILYLEDPVNHEWYPHYFVLTSSKIYYSEETSSDQGNEDEEEPKEASGSTELHSSEKWFHGKLGAGRDGRHIAERLLTEYCIETGAPDGSFLVRESETFVGDYTLSFWRNGKVQHCRIHSRQDAGTPKFFLTDNLVFDSLYDLITHYQQVPLRCNEFEMRLSEPVPQTNAHESKEWYHASLTRAQAEHMLMRVPRDGAFLVRKRNEPNSYAISFRAEGKIKHCRVQQEGQTVMLGNSEFDSLVDLISYYEKHPLYRKMKLRYPINEEALEKIGTAEPDYGALYEGRNPGFYVEANPMPTFKCAVKALFDYKAQREDELTFTKSAIIQNVEKQDGGWWRGDYGGKKQLWFPSNYVEEMINPAILEPEREHLDENSPLGDLLRGVLDVPACQIAIRPEGKNNRLFVFSISMPSVAQWSLDVAADSQEELQDWVKKIREVAQTADARLTEGKMMERRKKIALELSELVVYCRPVPFDEEKIGTERACYRDMSSFPETKAEKYVNKAKGKKFLQYNRLQLSRIYPKGQRLDSSNYDPLPMWICGSQLVALNFQTPDKPMQMNQALFMAGGHCGYVLQPSTMRDEAFDPFDKSSLRGLEPCVICIEVLGARHLPKNGRGIVCPFVEIEVAGAEYDSTKQKTEFVVDNGLNPVWPAKPFHFQISNPEFAFLRFVVYEEDMFSDQNFLAQATFPVKGLKTGYRAVPLKNNYSEDLELASLLIKIDIFPAKENGDLSPFSGTSLRERASDASSQLFHVRAREGSFEARYQQPFEDFRISQEHLADHFDSRERRAPRRTRVNGDNRL
modifications: C-terminal Glu-Glu-Phe epitope tag

How the values were obtained:
[1] = system: platelets; details: background statement; cited from earlier work
[2] = system: phospholipase C; details: background statement; cited from earlier work
[3] = system: macrophages; details: background statement; cited from earlier work
[4] = molecular target: T1, PLCγ1 (Rattus norvegicus, UniProt P10686); test: Assay of inhibitory activity of compounds against PLCγ1 (hydrolysis of [3H]-phosphatidyl inositol by purified bacterially expressed PLCγ1); assay type: biochemical; details: 30° C., pH 7.5, 0.1% deoxycholate, compound included prior to addition of enzyme
T1 construct: made in house; host or cells: E. coli BL21 (DE3)
T1 sequence (P10686 with tags, fused parts or gaps limits assumed): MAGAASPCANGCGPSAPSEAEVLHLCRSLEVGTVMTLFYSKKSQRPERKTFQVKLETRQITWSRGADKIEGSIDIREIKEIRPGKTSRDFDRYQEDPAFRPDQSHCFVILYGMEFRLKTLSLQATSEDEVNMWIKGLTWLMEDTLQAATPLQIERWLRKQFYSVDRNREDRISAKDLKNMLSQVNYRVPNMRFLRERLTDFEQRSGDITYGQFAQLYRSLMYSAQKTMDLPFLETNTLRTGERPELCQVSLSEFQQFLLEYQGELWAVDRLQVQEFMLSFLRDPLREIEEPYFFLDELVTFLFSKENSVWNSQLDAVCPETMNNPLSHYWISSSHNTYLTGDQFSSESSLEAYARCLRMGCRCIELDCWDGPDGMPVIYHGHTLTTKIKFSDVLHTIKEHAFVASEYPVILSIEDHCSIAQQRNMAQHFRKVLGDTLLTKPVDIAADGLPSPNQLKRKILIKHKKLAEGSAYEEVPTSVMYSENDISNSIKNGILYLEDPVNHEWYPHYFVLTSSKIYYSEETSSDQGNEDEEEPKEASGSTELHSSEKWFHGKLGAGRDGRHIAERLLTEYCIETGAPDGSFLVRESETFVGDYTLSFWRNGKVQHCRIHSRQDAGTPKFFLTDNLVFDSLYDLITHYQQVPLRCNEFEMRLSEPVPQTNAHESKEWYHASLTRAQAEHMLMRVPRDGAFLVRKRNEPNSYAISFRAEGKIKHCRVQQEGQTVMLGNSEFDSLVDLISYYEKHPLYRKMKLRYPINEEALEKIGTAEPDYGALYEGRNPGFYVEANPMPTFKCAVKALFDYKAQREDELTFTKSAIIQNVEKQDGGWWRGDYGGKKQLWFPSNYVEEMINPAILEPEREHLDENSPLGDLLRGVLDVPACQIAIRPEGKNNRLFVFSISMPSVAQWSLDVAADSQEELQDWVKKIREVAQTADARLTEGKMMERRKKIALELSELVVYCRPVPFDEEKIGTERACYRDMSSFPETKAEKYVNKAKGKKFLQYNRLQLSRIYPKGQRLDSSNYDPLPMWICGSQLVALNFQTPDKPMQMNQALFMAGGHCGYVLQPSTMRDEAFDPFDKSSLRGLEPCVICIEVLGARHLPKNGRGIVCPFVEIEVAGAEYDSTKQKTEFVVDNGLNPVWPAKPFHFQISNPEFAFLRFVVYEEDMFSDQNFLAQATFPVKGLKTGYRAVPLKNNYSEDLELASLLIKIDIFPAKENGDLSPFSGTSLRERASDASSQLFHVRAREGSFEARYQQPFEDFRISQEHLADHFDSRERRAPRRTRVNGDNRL
Text: Subcloning of the PLCγ1 Coding Sequence. Rat brain cDNA is synthesized using rat brain poly(A)RNA as template by literature protocol (Sambrook, J. et al., Molecular Cloning: A Laboratory Manual, Cold Spring Harbor Laboratory Press, Cold Spring Harbor, N.Y.). From the published cDNA sequence of rat brain PLCγ1 (Suh, P. -G., Ryu, S. H., Moon, K. H., Suh, H. W., & Rhee, S. G. (1988) Proc. Natl. Acad. Sci. USA 85, 5419-5423), PCR primers, one which contains a BamHI restriction site upstream of the sequence complementary to the 5' end of the PLCγ gene (primer 01 ), and the other one which contains a HindIII site downstream of the 3' end of the PLCγ gene (primer 04), were synthesized. Carrying out the PCR using these primers (01 and 04) with the above mentioned rat brain eDNA as template, a DNA fragment with the entire rat brain PLCγ1 coding sequence, flanked by a 5' BamHI site and a 3' HindIII site, is generated. This BarnHI-HindIII fragment containing the coding sequence of PLCγ1 was subcloned into pBSII(S/K)+, generating pPLCl. The rest of the manipulations were accomplished using PCR to generate the appropriate DNA fragment. The 5' end of the PLCγ1 gene was altered to include a new BarnHi site and a sequence that would eventually translationally couple the expression of PLCγ to the .phi.10 gene of the pT5T vector as described by Eisenberg, S. P., Evans, R. J., Arend, W. P., Verderber, E., Brewer, M. T., Hannum, C. H., & Thompson, R. C. (1990) Nature(London) 343,341-346.
Using the isolated mutant fragments from each of these PCRs together as template, the final PCR was carried out using primers 03-06 which yielded, after restriction enzyme digestion, a SphI and HindIll fragment which was used to replace the analogous fragment in pPLC2. The resulting plasmid, pPLC3, contained the coding sequence of the PLCγ1 gene on a BarnHI-HindlII fragment with both the sequence encoding the Glu-Glu-Phe tag at the 3' end as well as the changed AGG codons. […] (SEQ.ID.NO.: 3) Finally, the BarnHI-HindIII fragment from pPLC3 was transferred into the BamHI-HindIII site of pTST, generating pTST-PLC4. This construct was used to produce PLCγ1 (containing the Glu-Glu-Phe epitope tag at the C-terminus) translationally coupled to the expression of .phi.10 protein in the pT5T vector.
Expression and Purification of PLCγ1. To express PLCγ1 the plasmid pT5T-PLC4 was transformed into E. coli BL21 (DE3). The transformed cells were grown in LB media containing ampicillin (100 μg/ml) and tetracycline (12.5 μg/ml) at 20° C. until the optical density of the cultures at 550 nm was equal to 0.8. This transformed bacterial cell has been deposited with the ATCC and has been assigned the number ATCC 69421. Expression of PLCγ1 was then induced by addition of isopropyl β-D-thiogalactopyranoside (0.5 mM final concentration) to the cultures. After growing for another 6 hours the cells were harvested and PLCγ1 was purified as described below. PLCγ1 was isolated from E. coli by resuspending a cell pellet in standard buffer, 50 mM Tris-C1 pH 8.0, 2 mM MgCl2, 10 mM CaCl2, 1 mM EGTA, 5 mM DTT, 5 mM streptomycin sulfate, 1 mM PMSF, 2 μg/ml leupeptin, 2 μg/ml antipain, 10 μg/ml aprotinin (approximately 5 g wet packed cells/10 ml buffer). The resuspended cells were broken by sonication and the cell debris pelleted by centrifugation at 30,000×g at 4° C. for 30 minutes. The soluble fraction was applied at a flow rate of approximately 0.5 ml/min. to a 2 ml column of the monoclonal antibody YL 1/2(4 mg antibody/ml resin) coupled to cyanogen bromide activated Sepharose. The YL1/2 Sepharose column, which binds the epitope tag Glu-Glu-Phe had previously been equilibrated with standard buffer. After loading the protein onto the column, the column was washed with standard buffer (100 mls) PLCγ1 was eluted with 3×5ml 5 mM Asp-Phe dipeptide (Sigma) in standard buffer. The column was regenerated by washing with phosphate buffered saline (PBS)+2 M NaCl and then stored in PBS +0.02% NaN3 (wt./vol). […]

[5] = Assay of purified PLCγ1 activity (hydrolysis of [3H]-phosphatidyl inositol); assay type: biochemical; details: 30° C., 50 mM HEPES pH 7.5; bacterially expressed vs naturally derived enzyme in the same assay
Text: Reactions were never allowed to proceed to more than 10% completion based on the limiting substrate.

Molecule | IC50 ([4]; Table 1) | also measured
c1ccc2c(c1)Nc1ccccc1S2 [phenothiazine] |  | inhibition of stimulated release of prostaglandins from platelets [1]: inhibit; inhibition of phospholipase C [2]: inhibited; inhibition of stimulated release of arachidonic acid from macrophages [3]: inhibit
CCc1cccc(Oc2ccc(C(O)P(=O)(O)O)cc2)c1 (stereo not drawn) [drawing 2: R3=H, R4=CH2CH3, R5=H] |  | IC50 ([4]; Table 2): 37 µM
COc1cccc(Oc2ccc(C(O)P(=O)(O)O)cc2)c1 (stereo not drawn) [drawing 2: R3=H, R4=OCH3, R5=H] |  | IC50 ([4]; Table 2): 8 µM
O=P(O)(O)C(O)c1cccc(Oc2ccc(Cl)c(Cl)c2)c1 (stereo not drawn) [drawing 1: R3=H, R4=Cl, R5=Cl] | 56 µM | 
O=P(O)(O)C(O)c1ccc(Oc2cccc(Cl)c2)cc1 (stereo not drawn) [drawing 2: R3=H, R4=Cl, R5=H] |  | IC50 ([4]; Table 2): 5 µM
O=P(O)(O)C(O)c1cccc(Oc2ccccc2Cl)c1 (stereo not drawn) [drawing 1: R3=Cl, R4=H, R5=H] | 17 µM | 
COc1ccc(Oc2cccc(C(O)P(=O)(O)O)c2)cc1 (stereo not drawn) [drawing 1: R3=H, R4=H, R5=OCH3] | 7 µM | 
O=P(O)(O)C(O)c1cccc(Oc2ccc(O)cc2)c1 (stereo not drawn) [drawing 1: R3=H, R4=H, R5=OH] | 3 µM | 
O=P(O)(O)C(O)c1cccc(Oc2cccc(Cl)c2)c1 (stereo not drawn) [drawing 1: R3=H, R4=Cl, R5=H] | 10 µM | 
O=P(O)(O)C(O)c1cccc(Oc2ccc(Cl)cc2)c1 (stereo not drawn) [drawing 1: R3=H, R4=H, R5=Cl] | 36 µM | 
Cc1ccc(Oc2cccc(C(O)P(=O)(O)O)c2)cc1 (stereo not drawn) [drawing 1: R3=H, R4=H, R5=CH3] | 13 µM | 
O=P(O)(O)C(O)c1cccc(Oc2ccccc2)c1 (stereo not drawn) [drawing 1: R3=H, R4=H, R5=H] | 190 µM | 
B1 |  | specific activity [5]: 13.8 µmol/min/mg

From patent US5474921A, “Expression and purification of phosphoinositide-specific phospholipase C-γ” (Merck & Co., Inc., priority 1993, dated 1995)
